Measurements taken from patent US20130096170A1 (priority 2011, published 2013).
Where two headings read alike, the source gives them in different places.

Key:
[1] = human, in vivo
[2] = human, in vivo; remark: listed apart in the source
[3] = test system: pediatric subjects 12 to <24 months; settings: in vivo
clinical [4] = settings: human, plasma, intravenous
clinical [5] = settings: human, in vivo
[6] = test system: neonates ≥28 to ≤44 weeks gestational age
[7] = in vivo
[8] = cited from earlier work
[9] = human, in vivo; remark: listed apart in the source
clinical [10] = settings: human, in vivo; remark: listed apart in the source
clinical [11] = settings: human, in vivo; remark: listed apart in the source
[12] = age Group I, dose level 2 (Dex 0.1), N = 6
[13] = Su et al. model, subject 7.7 months, 7 kg, total bypass time 57 minutes
[14] = noncompartmental analysis of the adult long-term use data
[15] = population PK of 4 pooled pediatric intensive care studies (1 week to 14 years)
[16] = typical subject, adult population PK analysis of long-term (>24 h) use
[17] = Dose Level 1, LD 0.25/CD 0.2 μg/kg/hr, full evaluable population
[18] = Dose Level 2, LD 0.50/CD 0.4 μg/kg/hr, full evaluable population
[19] = Dose Level 3, LD 1.00/CD 0.7 μg/kg/hr, full evaluable population
[20] = Dose Level 4, LD 1.00/CD 2.00 μg/kg/hr, full evaluable population
[21] = Table 30 key summary (mean), Dose Level 1, LD 0.25/CD 0.2 μg/kg/hr, full evaluable population
[22] = Table 30 key summary (mean), Dose Level 2, LD 0.50/CD 0.4 μg/kg/hr, full evaluable population
[23] = Table 30 key summary (mean), Dose Level 3, LD 1.00/CD 0.7 μg/kg/hr, full evaluable population
[24] = Table 30 key summary (mean), Dose Level 4, LD 1.00/CD 2.00 μg/kg/hr, full evaluable population

## Cc1cccc([C@H](C)c2cnc[nH]2)c1C [dexmedetomidine]
[1]
  CL, predicted: 47.8 L/h
  Exponent of power relationship between Q and age, Population Mean: −0.509
  IIV in Q: 117 % CV
  Proportional shift in allometric exponent for Vc for neonates, Population Mean: 0.513
  Q, model value: 68.21 L/h
  Slope of linear age effect on Vp, Population Mean: −1.43 L/y
  Vc, model value: 6.22 L
  Vp, model value: 13.21 L
  interindividual variability in CL, Vc, and Vp: 35-55 % CV
  terminal elimination (β) half-life: 1.8 h
  unexplained interindividual variability (IIV) in Q: 163 % CV
  volume of distribution, predicted: 114.6 L
[2]
  AUC (0-Infinity)Dose: 2102.55 (n = 2) (pg/mL)hr/μg
  AUC (0-Last): 813.26 (pg/mL)hr
  Vdw: 3.47 (n = 2) L/kg
  dose-adjusted AUC (0-Infinity), additional cohort versus age group II: 4.6 times higher
  t1/2: 8 h
[3]; human
  subjects with treatment-emergent adverse events: 20.0%
[3]
  safety and tolerability: safe and well tolerated
Clinical [4]; CL, Geo. Mean of individual Bayesian estimates, 1 month-<6 months (n = 14)
  clearance: 116 mL/min
Clinical [4]; CL, Geo. Mean of individual Bayesian estimates, 2 y-<6 y (n = 26)
  clearance: 265 mL/min
Clinical [4]; CL, Geo. Mean of individual Bayesian estimates, 6 months-<12 months (n = 16)
  clearance: 136 mL/min
Clinical [4]; CL, Geo. Mean of individual Bayesian estimates, 6 y-<17 y (n = 29)
  clearance: 408 mL/min
Clinical [4]; CL, Geo. Mean of individual Bayesian estimates, 12 months-<24 months (n = 13)
  clearance: 179 mL/min
Clinical [4]; CL, Geo. Mean of individual Bayesian estimates, 28 weeks GA-<1 month (n = 28)
  clearance: 38 mL/min
Clinical [4]; CL, elimination clearance (population mean), final population PK model, Examples 5, 3, 1 and 7
  clearance: 178 mL/min
Clinical [4]; Volume of Distribution, Geo. Mean of individual Bayesian estimates, 1 month-<6 months (n = 14)
  Vd: 17.3 L
Clinical [4]; Volume of Distribution, Geo. Mean of individual Bayesian estimates, 2 y-<6 y (n = 26)
  Vd: 33.7 L
Clinical [4]; Volume of Distribution, Geo. Mean of individual Bayesian estimates, 6 months-<12 months (n = 16)
  Vd: 21.2 L
Clinical [4]; Volume of Distribution, Geo. Mean of individual Bayesian estimates, 6 y-<17 y (n = 29)
  Vd: 51.6 L
Clinical [4]; Volume of Distribution, Geo. Mean of individual Bayesian estimates, 12 months-<24 months (n = 13)
  Vd: 23.9 L
Clinical [4]; Volume of Distribution, Geo. Mean of individual Bayesian estimates, 28 weeks GA-<1 month (n = 28)
  Vd: 14.1 L
Clinical [4]; Weight-Adjusted CL, Geometric Mean (individual Bayesian estimates), Including Additional 11 Subjects, 1 month-<6 months (n = 14)
  clearance: 20.2 mL/min/kg
Clinical [4]; Weight-Adjusted CL, Geometric Mean (individual Bayesian estimates), Including Additional 11 Subjects, 2 y-<6 y (n = 26)
  clearance: 18.5 mL/min/kg
Clinical [4]; Weight-Adjusted CL, Geometric Mean (individual Bayesian estimates), Including Additional 11 Subjects, 6 months-<12 months (n = 16)
  clearance: 18.5 mL/min/kg
Clinical [4]; Weight-Adjusted CL, Geometric Mean (individual Bayesian estimates), Including Additional 11 Subjects, 6 y-<17 y (n = 29)
  clearance: 13.3 mL/min/kg
Clinical [4]; Weight-Adjusted CL, Geometric Mean (individual Bayesian estimates), Including Additional 11 Subjects, 12 months-<24 months (n = 13)
  clearance: 17.7 mL/min/kg
Clinical [4]; Weight-Adjusted CL, Geometric Mean (individual Bayesian estimates), Including Additional 11 Subjects, 28 weeks GA-<1 month (n = 28)
  clearance: 15.5 mL/min/kg
Clinical [4]; Weight-Adjusted Vd, Geometric Mean (individual Bayesian estimates), Including Additional 11 Subjects, 1 month-<6 months (n = 14)
  Vd: 3.02 L/kg
Clinical [4]; Weight-Adjusted Vd, Geometric Mean (individual Bayesian estimates), Including Additional 11 Subjects, 2 y-<6 y (n = 26)
  Vd: 2.35 L/kg
Clinical [4]; Weight-Adjusted Vd, Geometric Mean (individual Bayesian estimates), Including Additional 11 Subjects, 6 months-<12 months (n = 16)
  Vd: 2.89 L/kg
Clinical [4]; Weight-Adjusted Vd, Geometric Mean (individual Bayesian estimates), Including Additional 11 Subjects, 6 y-<17 y (n = 29)
  Vd: 1.68 L/kg
Clinical [4]; Weight-Adjusted Vd, Geometric Mean (individual Bayesian estimates), Including Additional 11 Subjects, 12 months-<24 months (n = 13)
  Vd: 2.35 L/kg
Clinical [4]; Weight-Adjusted Vd, Geometric Mean (individual Bayesian estimates), Including Additional 11 Subjects, 28 weeks GA-<1 month (n = 28)
  Vd: 5.74 L/kg
Clinical [5]; after the start of the maintenance infusion
  Tmax: 0.68 h
Clinical [5]; before the end of the loading dose
  Tmax: ~0.08 h
Clinical [5]; clearance
  clearance: ~95 mL/min
Clinical [5]; half-life
  half-life: ~2 h
Clinical [5]; t1/2, Mean
  half-life: 1.96 h
Clinical [5]; weight adjusted CL
  clearance: ~10 mL/min/kg
Clinical [5]; weight adjusted Vd
  Vd: ~1.6 L/kg
[6]; [12]
  TEAE: Anger, subjects: 1 (16.7%)
  TEAE: Blood bilirubin unconjugated increased, subjects: 1 (16.7%)
  TEAE: Bradycardia, subjects: 1 (16.7%)
  TEAE: Cardiac disorders, subjects: 1 (16.7%)
  TEAE: Cardio-respiratory arrest, subjects: 1 (16.7%)
  TEAE: General disorders and administration site conditions, subjects: 2 (33.3%)
  TEAE: Haematuria, subjects: 1 (16.7%)
  TEAE: Hepatobiliary disorders, subjects: 1 (16.7%)
  TEAE: Hyperbilirubinaemia, subjects: 1 (16.7%)
  TEAE: Hyperglycaemia, subjects: 1 (16.7%)
  TEAE: Hypocalcaemia, subjects: 1 (16.7%)
  TEAE: Hypoproteinaemia, subjects: 1 (16.7%)
  TEAE: Infections and infestations, subjects: 1 (16.7%)
  TEAE: Infusion site extravasation, subjects: 1 (16.7%)
  TEAE: Investigations, subjects: 2 (33.3%)
  TEAE: Oedema, subjects: 1 (16.7%)
  TEAE: Oxygen saturation decreased, subjects: 1 (16.7%)
  TEAE: Psychiatric disorders, subjects: 1 (16.7%)
  TEAE: Renal and urinary disorders, subjects: 1 (16.7%)
  TEAE: Sepsis, subjects: 1 (16.7%)
[6]; human, in vivo
  TEAE: Metabolism and nutrition disorders, subjects: 3 (50.0%)
  TEAE: Number of Events: 18
  patients with adverse events: 67%
  subjects with treatment-emergent adverse effects assessed as related to treatment: 2 subjects
[6]; in vivo
  safety and tolerability: safe and well tolerated
  severe treatment-emergent adverse effects: no severe
[7]; human
  power-model slope (95% confidence interval) for AUC0-inf: 1.263 (0.820, 1.706)
  power-model slope (95% confidence interval) for Cmax: 0.898 (0.652, 1.143)
[7]
  pharmacokinetic linearity / dose proportionality: linearity and dose proportionality
[8]; [13]
  CL: 7.26 L/h
  Q: 24.1 L/h
  Vc: 8.4 L
  Vp: 10.2 L
[8]; [14]
  CL: 39.4 L/h
  volume of distribution: 152 L
[8]; [15]
  CL standardized to a 70-kg adult: 42.1 L/h
  volume of distribution standardized to a 70-kg adult: 125.3 L
[8]; product label for Precedex
  volume of distribution: 118 L
[8]; product label for Precedex, mean body weight 72 kg
  CL: 39 L/h
[8]; [16]
  CL: 35.8 L/h
  volume of distribution: 112.7 L
[9]
  t1/2, Mean: 2.260 h
[17]
  Css Mean: 402.026 µg/mL
  Css Median: 197.991 µg/mL
  λz Mean: 0.469 h⁻¹
  λz Median: 0.446 h⁻¹
[18]
  Css Mean: 539.848 µg/mL
  Css Median: 513.902 µg/mL
  λz Mean: 0.408 h⁻¹
  λz Median: 0.411 h⁻¹
[19]
  Css Mean: 1347.284 µg/mL
  Css Median: 947.907 µg/mL
  λz Mean: 0.369 h⁻¹
  λz Median: 0.386 h⁻¹
[20]
  Css Mean: 2827.144 µg/mL
  Css Median: 2665.409 µg/mL
  λz Mean: 0.360 h⁻¹
  λz Median: 0.326 h⁻¹
[21]
  Css: 0.402 ng/mL
  λz: 0.5 h⁻¹
[22]
  Css: 0.5398 ng/mL
  λz: 0.4 h⁻¹
[23]
  Css: 1.3473 ng/mL
  λz: 0.4 h⁻¹
[24]
  Css: 2.8271 ng/mL
  λz: 0.4 h⁻¹
human, in vivo
  Css: 5.74355e+09 ng/mL
  dose proportionality of AUC and Cmax: dose proportionality and a linear relationship
Clinical [10]; 0.05 ug/kg, CLw (clearance)
  clearance: 6.83 mL/min/kg
Clinical [10]; AUC (0-Last)
  AUC(0-t): 0.708 ng·h/mL
Clinical [10]; CLw (weight adjusted clearance)
  clearance: 4.83 mL/min/kg
Clinical [10]; Vss
  Vd: 6.25 L
Clinical [10]; elimination t1/2
  half-life: 4.77 h
Clinical [10]; t1/2
  half-life: 8.32 h
Clinical [11]; CL, Population Mean
  clearance: 308 mL/min
Clinical [11]; CL, model value
  clearance: 142 mL/min
Clinical [11]; Weight-Adjusted CL, Geo. Mean of individual Bayesian estimates
  clearance: 16.5 mL/min/kg
Clinical [11]; Weight-Adjusted CL, Geometric Mean
  clearance: 16.5 mL/min/kg
Clinical [11]; terminal elimination (β) half-life
  half-life: 1.6 h
